According to US4175081A, “5-Substituted thiadiazole ureas” (priority 1977, dated 1979):

Assays:
Cotton (CT) [1] = test: Post-emergence herbicide test; assay type: in vivo, Gossypium hirsutum var. DPL smooth leaf; conditions: Gossypium hirsutum, post-emergence, 336 h, two weeks after treatment
How it was run: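 This greenhouse post-emergence test measured how well spray treatments controlled cotton. Seedlings of Gossypium hirsutum var. DPL smooth leaf, with expanded cotyledons and a first true leaf 1' in length, were sprayed with 50 ml formulations in a belt-fed spray hood. They were then returned to the greenhouse and watered only by sub-irrigation. Injury was scored visually as % control after two weeks.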

Johnson grass (JG) [2] = test: Pre-emergence herbicide test; assay type: in vivo, Sorgum helepense; conditions: Sorghum halepense, 336 h, two weeks after treatment
How it was run: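 Visual injury or control rating two weeks post-treatment, after pre-emergence spray of 8 or 4 lbs active per acre (38 gal/acre) onto pots sown the previous day. Greenhouse watering by sub-irrigation only.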

Crabgrass (CG) [3] = test: Post-emergence herbicide test; assay type: in vivo, Digitaria sanquinalis; conditions: Digitaria sanguinalis, post-emergence, 336 h, two weeks after treatment
How it was run: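 Crabgrass (Digitaria sanquinalis) was surface seeded individually in 3' plastic pots of potting soil, covered with screened soil, and watered by sub-irrigation in greenhouse trays. Planting was staggered so seedlings reached the target stage together. Post-emergence sprays were applied in a hood with a removable belt and fixed nozzle, and control was visually rated two weeks after treatment.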

Cotton (CT) [4] = test: Pre-emergence herbicide test; assay type: in vivo, Gossypium hirsutum var. DPL smooth leaf; conditions: Gossypium hirsutum, 336 h, two weeks after treatment
How it was run: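 Visual injury/control ratings were taken at two weeks post-spray. Pots seeded a day earlier received compound pre-emergence at 8 lbs/acre, or 4 lbs/acre, in a 38 gallon/acre spray volume, and were then held in the greenhouse, watered only from below.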

Crabgrass (CG) [5] = test: Pre-emergence herbicide test; assay type: in vivo, Digitaria sanquinalis; conditions: Digitaria sanguinalis, pre-emergence, 336 h, two weeks after treatment
How it was run: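 Crabgrass (Digitaria sanquinalis) was surface seeded in 3' plastic pots of potting soil, covered with screened soil, and watered by sub-irrigation in greenhouse trays. Pots were seeded one day before spraying in a hood with a moving belt and fixed nozzle. Plants stayed in the greenhouse on sub-irrigation, and pre-emergence control was rated visually two weeks after treatment.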

Amaranth pigweed (PW) [6] = test: Post-emergence herbicide test; assay type: in vivo, Amaranthus retroflexus; conditions: 336 h, 2 lb/acre, two weeks after treatment
How it was run: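 Visual injury or control ratings were made two weeks after spraying, with greenhouse watering by sub-irrigation only. Treatment was post-emergence, when pigweed seedlings had 1 or 2 true leaves, at 8 lbs active compound per acre (4 lbs/acre formulations also made) in a 38 gallons-per-acre spray volume.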

Turnip (TP) [7] = test: Post-emergence herbicide test; assay type: in vivo, Brassica sp.; conditions: Brassica rapa, post-emergence, 336 h, two weeks after treatment
How it was run: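 A greenhouse post-emergence herbicide test on turnip. Seeds were sown on the surface of potting soil in 3' plastic pots, lightly covered with screened soil and watered from below. Planting was timed so seedlings had 1 or 2 true leaves above the cotyledons at spraying, done in a hood with a fixed nozzle. Control or injury was scored by eye after two weeks.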

Barnyard grass (BG) [8] = test: Post-emergence herbicide test; assay type: in vivo; conditions: Echinochloa crus-galli, 336 h, 2 lb/acre, two weeks after treatment
How it was run: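 Greenhouse pot-grown barnyard grass seedlings sprayed post-emergence at 8 lbs active compound per acre (some at 4 lbs/acre) in 38 gallons per acre, then sub-irrigated. Injury or control rated visually two weeks after treatment.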

Corn (CN) [9] = test: Post-emergence herbicide test; assay type: in vivo; conditions: Zea mays, 336 h, two weeks after treatment
How it was run: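 Greenhouse seedlings grown in potting soil and sprayed post-emergence at 8 lbs compound/acre (formulations also made for 4 lbs/acre) in 38 gallons/acre spray volume. Watering by sub-irrigation only. Injury or control rated visually two weeks after treatment.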

[10] = tested on: Yellow foxtail grass (YF); test: Pre-emergence herbicide test; assay type: in vivo, Setaria glauca; conditions: Setaria, 336 h, 2 lb/acre, two weeks after treatment
How it was run: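 Visual rating of injury/control made two weeks after a pre-emergence spray of 8 or 4 lbs active per acre (38 gal/acre) onto pots seeded the previous day. Greenhouse watering by sub-irrigation only.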

Turnip (TP) [11] = test: Pre-emergence herbicide test; assay type: in vivo, Brassica sp.; conditions: Brassica rapa, pre-emergence, 336 h, two weeks after treatment
How it was run: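 In this pre-emergence greenhouse test, turnip was seeded on the surface of potting soil in 3' plastic pots, lightly covered with screened soil, and watered from below. One day later the pots were sprayed in a belt-fed spray hood. Watering continued only by sub-irrigation, and percent control was visually scored two weeks after treatment.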

Amaranth pigweed (PW) [12] = test: Pre-emergence herbicide test; assay type: in vivo, Amaranthus retroflexus; conditions: 336 h, 2 lb/acre, two weeks after treatment
How it was run: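 Visual injury or control ratings were made at two weeks on pre-emergence pots, sub-irrigated in the greenhouse. Seeds were sown a day before a hood spray delivering 8 lbs/acre (or 4 lbs/acre) of compound in 38 gallons per acre.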

[13] = tested on: Yellow foxtail grass (YF); test: Post-emergence herbicide test; assay type: in vivo, Setaria glauca; conditions: Setaria, 336 h, 2 lb/acre, two weeks after treatment
How it was run: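 Visual rating of injury/control made 2 weeks post-spray. Seedlings at a uniform growth stage in soil-filled pots received a hood spray of 8 lbs/acre active compound, 38 gallons/acre volume, with a 4 lbs/acre rate also formulated. Watering was by sub-irrigation only.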

Corn (CN) [14] = test: Pre-emergence herbicide test; assay type: in vivo; conditions: Zea mays, 336 h, two weeks after treatment
How it was run: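 Visual injury/control ratings were made 2 weeks post-spray on corn pots seeded (4 seeds, seed-diameter depth) the day before treatment. Application was a belt-hood spray of 38 gal/acre delivering 8 lbs active per acre, with a 4 lbs/acre rate also formulated. Watering was by sub-irrigation throughout.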

Bean (BN) [15] = test: Pre-emergence herbicide test; assay type: in vivo, Phaseolus vulgaris var. Black Valentine; conditions: Phaseolus vulgaris, 336 h, two weeks after treatment
How it was run: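 Visual injury/control ratings were taken two weeks post-spray on sub-irrigated Phaseolus vulgaris var. Black Valentine. Pots were sown a day before treatment. Pre-emergence spray delivered 8 lbs actual compound per acre (or 4 lbs/acre) at 38 gallons per acre.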

Johnson grass (JG) [16] = test: Post-emergence herbicide test; assay type: in vivo, Sorgum helepense; conditions: Sorghum halepense, 336 h, two weeks after treatment
How it was run: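 Visual injury or control scores taken 2 weeks after a post-emergence spray of pot-grown plants. Application was 8 lbs/acre (or 4 lbs/acre) in 38 gal/acre. Plants were held in the greenhouse with sub-irrigation only.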

Bean (BN) [17] = test: Post-emergence herbicide test; assay type: in vivo, Phaseolus vulgaris var. Black Valentine; conditions: Phaseolus vulgaris, post-emergence, 336 h, two weeks after treatment
How it was run: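 Bean seedlings (Phaseolus vulgaris var. Black Valentine) were grown in potting soil in 3' pots until the primary leaves expanded. They were then sprayed under a hood with a removable belt and fixed nozzle, using 50 ml formulations. Afterward they were returned to the greenhouse and watered only by sub-irrigation. Percent control was judged visually two weeks after treatment.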

[18] = Acute oral toxicity in rats; conditions: rat, in vivo
Barnyard grass (BG) [19] = test: Pre-emergence herbicide test; assay type: in vivo; conditions: Echinochloa crus-galli, 336 h, two weeks after treatment
How it was run: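 Greenhouse pre-emergence spray test: pots seeded one day before treatment received compound at rates of 8 or 4 lb/acre (38 gal/acre). Visual injury/control scores for Echinochloa crus-galli taken at two weeks, with watering by sub-irrigation only.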

CNC(=O)Nc1nnc(C(C)(C)C)s1 [Example 86] showed a pest or weed control at 2241.7 g/ha (Cotton (CT) [1]; 2 lb/acre) of 100%, a pest or weed control at 8966.8 g/ha (Cotton (CT) [1]; 8 lb/acre) of 100% and a pest or weed control at 2241.7 g/ha (Johnson grass (JG) [2]; 2 lb/acre) of 60%. It also gave a pest or weed control at 8966.8 g/ha (Johnson grass (JG) [2]; 8 lb/acre) of 50%, a pest or weed control (Crabgrass (CG) [3]; 2 lb/acre) of 50% and a pest or weed control at 8966.8 g/ha (Crabgrass (CG) [3]; 8 lb/acre) of 80%. For the same molecule, the pest or weed control at 2241.7 g/ha (Cotton (CT) [4]; 2 lb/acre) was 10%, the pest or weed control at 8966.8 g/ha (Cotton (CT) [4]; 8 lb/acre) was 50% and the pest or weed control (Crabgrass (CG) [5]; 2 lb/acre) was 90%. For the same molecule, the pest or weed control at 8966.8 g/ha (Crabgrass (CG) [5]; 8 lb/acre) was 100%, the pest or weed control at 2241.7 g/ha (Amaranth pigweed (PW) [6]) was 100% and the pest or weed control at 2241.7 g/ha (Turnip (TP) [7]; 2 lb/acre) was 100%. The pest or weed control at 8966.8 g/ha (Turnip (TP) [7]; 8 lb/acre) was 100%, the pest or weed control at 2241.7 g/ha (Barnyard grass (BG) [8]) was 50% and the pest or weed control (Corn (CN) [9]; 2 lb/acre) was 40%. It also gave a pest or weed control at 8966.8 g/ha (Corn (CN) [9]; 8 lb/acre) of 100%, a pest or weed control at 2241.7 g/ha [10] of 90% and a pest or weed control at 2241.7 g/ha (Turnip (TP) [11]; 2 lb/acre) of 100%. For the same molecule, the pest or weed control at 8966.8 g/ha (Turnip (TP) [11]; 8 lb/acre) was 100%, the pest or weed control at 2241.7 g/ha (Amaranth pigweed (PW) [12]) was 100% and the pest or weed control [13] was 70%. It also gave a pest or weed control at 2241.7 g/ha (Corn (CN) [14]; 2 lb/acre) of 10%, a pest or weed control at 8966.8 g/ha (Corn (CN) [14]; 8 lb/acre) of 60% and a pest or weed control at 2241.7 g/ha (Bean (BN) [15]; 2 lb/acre) of 30%. The pest or weed control at 8966.8 g/ha (Bean (BN) [15]; 8 lb/acre) was 100%, the pest or weed control (Johnson grass (JG) [16]; 2 lb/acre) was 80% and the pest or weed control at 8966.8 g/ha (Johnson grass (JG) [16]; 8 lb/acre) was 100%. It also gave a pest or weed control at 2241.7 g/ha (Bean (BN) [17]; 2 lb/acre) of 100%, a pest or weed control at 8966.8 g/ha (Bean (BN) [17]; 8 lb/acre) of 100% and an LD50 [18] of 2700 mg/kg. It also gave a pest or weed control at 2241.7 g/ha (Barnyard grass (BG) [19]; 2 lb/acre) of 60% and a pest or weed control at 8966.8 g/ha (Barnyard grass (BG) [19]; 8 lb/acre) of 80%.
